Measured values from patent publication US20100113504A1, “AMIDE COMPOUNDS AND THEIR USE AS ANTITUMOR AGENTS” (SIGMA-TAU INDUSTRIE FARMACEUTICHE RIUNITE S.P.A., priority 2007, published 2010).
Where two headings read alike, the source gives them in different places.

Experiments:
[1] = rcm bond
[2] = rcm bond, Grubbs II, CH2Cl2, 1.0 mM
[3] = system: NB4 human promyelocitic leukaemia; experiment: Cytotoxicity (sulphorodamine B) on NB4 tumor cells; type: cell-based; conditions: Homo sapiens, NB-4, 24 h treatment, then 48 h in drug-free medium, read-out: IC50 ± SD, NB4
Procedure: To test the effects of the compounds on cell growth, NB4 human promyelocitic leukaemia, NCI-H460 non-small cell carcinoma cells and HCT-116 human colon carcinoma cells were used. NB4 and NCI-H460 tumor cells were grown RPMI 1640 containing 10% fetal bovine serum (GIBCO), whereas HCT-116 tumor cells were grown in McCoy's 5A containing 10% fetal bovine serum (GIBCO).
(§1) Tumor cells were seeded in 96-well tissue culture plates at approximately 10% confluence and were allowed to attach and recover for at least 24 h. […] The plates were incubated for 24 h at 37° C. At the end of the treatment, for NB4 tumor cells in suspension, the procedure was performed as follows: medium culture was removed by centrifugation of the plates at 1600×g for 10 min and the surnatant was removed. 250 μl PBS were added, then the plates were centrifuged at 1600×g for 10 min, the surnatant was removed. 200 μl/well of medium culture RPMI 1640 containing 10% FCS were added and the plates were incubated at 37° C. for other 48 h. The plates were centrifuged again at 1600×g for 10 min, the medium culture was removed and 200 μl PBS and 50 μl of cold 80% TCA were added. The plates were incubated on ice for at least 1 h. TCA was removed, the plates were washed 3 times for immersion in distilled-water and dried before on paper, then in a thermostater at 40° C. Subsequently 200 μl of 0.4% sulphorodamine B in 1% acetic acid were added. The plates were incubated at room temperature for other 30 min. Sulphorodamine B was removed, the plates were washed for immersion in 1% acetic acid for 3 times, then they were washed and dried on paper. 200 μl Tris 10 mM were added, the plates were kept under stirring for 20 min. The survival cell was determined as optical density by a Multiskan spectrofluorimeter at 540 nm. For the tumor cells in adhesion (NCI-H460 and HCT-116), the procedure was as above mentioned, except that the at the end of the treatment, the plates were washed by remotion of the surnatant and addition of PBS 3 times and not by centrifugation. Also the last day of the assay, the surnatant was removed without centrifugation.
(§2) The amount of cells killed was calculated as the percentage decrease in sulphorodamine B binding compared with control cultures.

[4] = system: NCI-H460 non-small cell carcinoma cells; experiment: Cytotoxicity (sulphorodamine B) on NCI-H460 tumor cells; type: cell-based; conditions: Homo sapiens, 24 h treatment, then 48 h in drug-free medium, read-out: IC50 ± SD, NCI-H460
Procedure: as §1, with “200 μl/well of medium culture RPMI 1640 containing 10% FCS were added and the plates were incubated at 37° C. for other 48 h.” left out, “For the tumor cells in adhesion (NCI-H460 and HCT-116), the procedure was as above mentioned, except that the at the end of the treatment, the plates were washed by remotion of the surnatant and addition of PBS 3 times and not by centrifugation.” left out
as §2

[5] = system: HCT-116 human colon carcinoma cells; experiment: Cytotoxicity (sulphorodamine B) on HCT-116 tumor cells; type: cell-based; conditions: Homo sapiens, HCT-116 cells, 24 h treatment, then 48 h in drug-free medium, read-out: IC50 ± SD, HCT-116
Procedure: as §1, with “200 μl/well of medium culture RPMI 1640 containing 10% FCS were added and the plates were incubated at 37° C. for other 48 h.” left out, “For the tumor cells in adhesion (NCI-H460 and HCT-116), the procedure was as above mentioned, except that the at the end of the treatment, the plates were washed by remotion of the surnatant and addition of PBS 3 times and not by centrifugation.” left out
as §2

[6] = system: NB4, NCI-H460 and HCT-116 tumor cells; experiment: Cytotoxicity summarised over the three tumor cell lines; type: cell-based; conditions: Homo sapiens; mean over NB4, NCI-H460, HCT-116; 24 h of treatment
Procedure: as §1, with “200 μl/well of medium culture RPMI 1640 containing 10% FCS were added and the plates were incubated at 37° C. for other 48 h.” left out, “For the tumor cells in adhesion (NCI-H460 and HCT-116), the procedure was as above mentioned, except that the at the end of the treatment, the plates were washed by remotion of the surnatant and addition of PBS 3 times and not by centrifugation.” left out
as §2

Compound | IC50 [3] [nM] | IC50 [4] [nM] | IC50 [5] [nM] | IC50 [6] [nM] | also measured
COC(=O)CCCCC[C@H]1C(=O)Nc2ccccc2OCCCC=CCN1C(=O)OC(C)(C)C |  |  |  |  | ring closure, yield of all isomers ([1]; from C=CCCCOc1ccccc1NC(=O)[C@H](CCCCCC(=O)OC)N(CC=C)C(=O)OC(C)(C)C): 84%
COC(=O)CCCCC[C@H]1C(=O)Nc2ccccc2OCCCCC=CCN1C(=O)OC(C)(C)C |  |  |  |  | ring closure, yield of all isomers ([1]; from C=CCCCCOc1ccccc1NC(=O)[C@H](CCCCCC(=O)OC)N(CC=C)C(=O)OC(C)(C)C): 82%
7-(S)-Allyl-tert-butoxycarbonylamino)-7-(2-hex-5-enyloxyphenylcarbamoyl)heptanoic acid methyl ester |  |  |  |  | ring closure, isolated yield ([2]; the molecule shown is the open-chain precursor, 14-membered ring): 82%
7-(S)-Allyl-tert-butoxycarbonylamino)-7-(2-pent-4-enyloxyphenylcarbamoyl)heptanoic acid methyl ester |  |  |  |  | ring closure, isolated yield ([2]; the molecule shown is the open-chain precursor, 13-membered ring): 84%
COC(=O)CCCCCC1OCC=CCC(c2ccc(OC)cc2)Oc2ccccc2NC1=O (racemic) |  |  |  |  | ring closure, isolated yield ([2]; from C=CCOC(CCCCCC(=O)OC)C(=O)Nc1ccccc1OC(CC=C)c1ccc(OC)cc1, 12-membered ring): 45%
COC(=O)CCCCCC1OCC=CCCCOc2ccncc2NC1=O (racemic) |  |  |  |  | ring closure, isolated yield ([2]; from C=CCCCOc1ccncc1NC(=O)C(CCCCCC(=O)OC)OCC=C, 13-membered ring): 45%; ring closure, yield of all isomers ([1]; from C=CCCCOc1ccncc1NC(=O)C(CCCCCC(=O)OC)OCC=C): 45%
COC(=O)CCCCCC1OCC=Cc2cc(cc(OC)c2)COc2ccccc2NC1=O (racemic) |  |  |  |  | ring closure, isolated yield ([2]; from C=CCOC(CCCCCC(=O)OC)C(=O)Nc1ccccc1OCc1cc(C=C)cc(OC)c1, 14-membered ring): 52%
COc1cc(COC(CCCCCC(=O)NO)C(=O)Nc2ccccc2)cc(OC)c1 (racemic) [Compound 9j, (±)-2-(3,5-Dimethoxybenzyloxy)octanedioic acid 8-hydroxyamide 1-phenylamide] | 50 ± 5 | 400 ± 70 | 300 ± 8 | < 1000 | 
O=C(CCCCCC(OCc1cccc(Oc2ccccc2)c1)C(=O)Nc1ccccc1)NO (racemic) [Compound 9k, (±)-2-(3-Phenoxybenzyloxy)-octanedioic acid 8-hydroxyamide 1-phenylamide] | 200 ± 9 | 700 ± 40 | 700 ± 80 | < 1000 | 
COc1ccc(NC(=O)C(CCCCCC(=O)NO)OCc2ccccc2)cc1 (racemic) [Compound 9l, (±)-2-Benzyloxyoctanedioic acid 8-hydroxyamide 1-[(4-methoxyphenyl)-amide]] | 200 ± 20 | 1000 ± 90 | 500 ± 60 | < 1000 | 
COc1ccc(COC(CCCCCC(=O)NO)C(=O)Nc2ccc(OC)cc2)cc1 (racemic) [Compound 9m, (±)-2-(4-Methoxybenzyloxy)octanedioic acid 8-hydroxyamide 1-[(4-methoxyphenyl)amide]] | 100 ± 40 | 300 ± 40 | 300 ± 10 | < 1000 | 
COc1ccc(COC(CCCCCCC(=O)NO)C(=O)Nc2ccccc2)cc1 (racemic) [Compound 13d, (±)-2-(4-Methoxybenzyloxy)nonanedioic acid 9-hydroxyamide 1-phenylamide] | 300 ± 30 | 700 ± 30 | 500 ± 100 | < 1000 | 
COc1ccc(CO[C@H](CCCCCC(=O)NO)C(=O)Nc2ccccc2)cc1 [(R)-9d, 2-(R)-(4-Methoxybenzyloxy)octanedioic acid 8-hydroxyamide 1-phenylamide] | 70 ± 10 | 500 ± 30 | 400 ± 10 | < 1000 | 
